Data: patent US10174037B2, “Dihydropyrazolopyrimidinone compounds as PDE2 inhibitors” (Merck Sharp & Dohme Corp., priority 2015, dated 2019)
Read-outs that look alike come from different tables or passages of the source.

Columns and labels:
human PDE2A1 = human PDE2A1 (Homo sapiens (Human), UniProt O00408); assay: PDE selectivity IMAP FP assay, human PDE2A1; format: biochemical; details: Human PDE2
Method in brief: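 Compound titrations run against PDE2 in Tris HCl pH 7.2 buffer with MgCl2 and DTT for 60 min at room temperature, using 50 nM FAM-cAMP plus 1000 nM cGMP and enzyme giving 20% conversion.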

Rhesus PDE2A3 = Rhesus PDE2A3 (Macaca mulatta, UniProt B3VTJ2); assay: PDE2 fluorescence polarization (IMAP FP) assay, rhesus PDE2A3; format: biochemical, rhesus macaque
Sequence of Rhesus PDE2A3 (B3VTJ2 1-941): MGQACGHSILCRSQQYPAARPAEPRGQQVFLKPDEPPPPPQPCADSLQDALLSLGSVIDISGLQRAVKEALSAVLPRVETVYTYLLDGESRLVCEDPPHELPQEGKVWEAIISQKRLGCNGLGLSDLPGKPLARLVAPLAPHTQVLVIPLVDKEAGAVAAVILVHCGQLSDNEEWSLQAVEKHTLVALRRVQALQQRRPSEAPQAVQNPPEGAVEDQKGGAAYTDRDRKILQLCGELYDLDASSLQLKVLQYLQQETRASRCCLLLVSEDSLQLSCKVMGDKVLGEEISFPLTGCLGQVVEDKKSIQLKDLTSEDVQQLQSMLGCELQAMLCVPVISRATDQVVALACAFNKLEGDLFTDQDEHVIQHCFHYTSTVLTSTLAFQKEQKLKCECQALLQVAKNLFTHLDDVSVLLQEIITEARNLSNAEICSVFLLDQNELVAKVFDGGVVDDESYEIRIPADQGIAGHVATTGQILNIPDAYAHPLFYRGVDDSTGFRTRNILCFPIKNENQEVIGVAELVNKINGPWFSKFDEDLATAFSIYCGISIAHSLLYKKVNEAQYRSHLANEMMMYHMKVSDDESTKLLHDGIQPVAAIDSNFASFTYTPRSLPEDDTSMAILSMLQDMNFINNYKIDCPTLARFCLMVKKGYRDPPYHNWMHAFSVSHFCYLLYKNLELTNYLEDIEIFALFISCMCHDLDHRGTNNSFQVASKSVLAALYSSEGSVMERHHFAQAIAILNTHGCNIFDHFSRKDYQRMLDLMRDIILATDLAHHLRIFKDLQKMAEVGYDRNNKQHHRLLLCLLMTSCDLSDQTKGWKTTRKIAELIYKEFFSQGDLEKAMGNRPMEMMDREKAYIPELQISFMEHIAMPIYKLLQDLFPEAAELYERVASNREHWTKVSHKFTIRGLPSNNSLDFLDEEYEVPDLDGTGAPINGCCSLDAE

[1] = Lab B, read-out: Human PDE2 Ki (nM) Lab B
[2] = Lab B, read-out: Rhesus PDE2 Ki (nM) Lab B
[3] = Lab A, read-out: Human PDE2 Ki (nM) Lab A
[4] = Lab A, read-out: Rhesus PDE2 Ki (nM) Lab A

Sequence of human PDE2A1 (O00408 other isoform, or with tags, fused parts or gaps): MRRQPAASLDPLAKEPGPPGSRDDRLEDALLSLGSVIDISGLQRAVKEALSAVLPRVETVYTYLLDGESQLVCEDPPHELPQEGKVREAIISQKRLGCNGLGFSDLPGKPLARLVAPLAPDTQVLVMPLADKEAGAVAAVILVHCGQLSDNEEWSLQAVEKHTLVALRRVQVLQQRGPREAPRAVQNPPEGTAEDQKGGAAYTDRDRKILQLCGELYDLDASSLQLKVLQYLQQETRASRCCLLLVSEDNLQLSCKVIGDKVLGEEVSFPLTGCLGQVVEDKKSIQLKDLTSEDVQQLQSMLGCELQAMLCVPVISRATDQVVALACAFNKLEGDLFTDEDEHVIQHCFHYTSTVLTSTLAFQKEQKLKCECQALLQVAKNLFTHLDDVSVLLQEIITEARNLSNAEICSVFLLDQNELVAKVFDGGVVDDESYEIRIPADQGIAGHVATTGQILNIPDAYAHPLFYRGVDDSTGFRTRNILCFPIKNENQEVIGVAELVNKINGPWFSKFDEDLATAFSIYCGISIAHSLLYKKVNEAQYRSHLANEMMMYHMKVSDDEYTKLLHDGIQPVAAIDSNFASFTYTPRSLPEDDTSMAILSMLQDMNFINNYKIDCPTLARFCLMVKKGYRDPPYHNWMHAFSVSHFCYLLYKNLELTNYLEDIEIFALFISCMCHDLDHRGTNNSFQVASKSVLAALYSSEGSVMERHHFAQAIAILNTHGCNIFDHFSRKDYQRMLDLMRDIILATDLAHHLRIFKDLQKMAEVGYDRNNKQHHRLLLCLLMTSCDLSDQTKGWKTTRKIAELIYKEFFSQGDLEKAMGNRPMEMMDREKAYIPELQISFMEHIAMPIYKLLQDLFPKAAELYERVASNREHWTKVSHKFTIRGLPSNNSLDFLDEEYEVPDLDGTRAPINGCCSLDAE

Row | Ki (human PDE2A1; [1]) | Ki (Rhesus PDE2A3; [2]) | Ki (human PDE2A1; [3]) | Ki (Rhesus PDE2A3; [4]) | Compound
1 | 0.37 nM | 0.51 nM | – | – | CC(C)C(c1ccc(C(C)(F)F)cc1)n1nc(CF)c2c(=O)[nH]c(N(C)C)nc21 (single isomer, unassigned) [Example 206, (R)- or (S)-l-(1-(4-(1,1-Difluoroethyl)phenyl)-2-methylpropyl)-6-(dimethylamino)-3-(fluoromethyl)-1H-pyrazolo[3,4-d]pyrimidin-4(5H)-one]
2 | 0.047 nM | 0.05 nM | – | – | CN(C)c1nc2c(c(CO)nn2C(c2ccc(C(F)(F)F)cc2F)C2CC2)c(=O)[nH]1 (single isomer, unassigned) [Example 134, (R)- or (S)-1-(Cyclopropyl(2-fluoro-4-(trifluoromethyl)phenyl)methyl)-6-(dimethylamino)-3-(hydroxymethyl)-1H-pyrazolo[3,4-d]pyrimidin-4(5H)-one]
3 | 5.3 nM | 4.7 nM | – | – | CC(C)C(c1ccc(OC(F)(F)F)cc1)n1nc(CF)c2c(=O)[nH]c(O)nc21 (single isomer, unassigned) [Example 43, (S)- or (R)-3-(Fluorornethyl)-6-hydroxy-1-(2-methyl-1-(4-(trifluoromethoxy)phenyl)propyl)-1H-pyrazolo[3,4-d]pyrimidin-4(5H)-one]
4 | 13 nM | 21 nM | – | – | CC(c1ccc(OC(F)(F)F)cc1)n1nc(CC(F)(F)F)c2c(=O)[nH]c(O)nc21 (racemic) [Example 230, 6-Hydroxy-3-(2,2,2-trifluoroethyl)-1-(1-(4-(trifluoromethoxy)phenyl)ethyl)-1H-pyrazolo[3,4-d]pyrimidin-4(5H)-one]
5 | 0.27 nM | 0.27 nM | – | – | CC(c1ccc(C(F)(F)F)c(F)c1)n1nc(CO)c2c(=O)[nH]c(N(C)C)nc21 (single isomer, unassigned) [Example 69, (S)- or (R)-6-(Dimethylamino)-1-(1-(3-fluoro-4-(trifluoromethyl)phenyl)ethyl)-3-(hydroxymethyl)-1H-pyrazolo[3,4-d]pyrimidin-4(5H)-one]
6 | 0.063 nM | 0.096 nM | – | – | CCC(c1ccc(C(F)(F)F)cc1)n1nc(CF)c2c(=O)[nH]c(N(C)C)nc21 (single isomer, unassigned) [Example 173, (S)- or (R)-6-(Dimethylamino)-3-(fluoromethyl)-1-(1-(4-(trifluoromethyl)phenyl)propyl)-1H-pyrazolo[3,4-d]pyrimidin-4(5H)-one]
7 | 0.75 nM | 0.95 nM | – | – | CC(c1ccc(CC(F)(F)F)cc1)n1nc(CO)c2c(=O)[nH]c(N(C)C)nc21 (single isomer, unassigned) [Example 71, (S)- or (R)-6-(Dimethylamino)-3-(hydroxymethyl)-1-(1-(4-(2,2,2-trifluoroethyl)phenyl)ethyl)-1H-pyrazolo[3,4-d]pyrimidin-4(5H)-one]
8 | 2.4 nM | 3.7 nM | – | – | CC(c1ccc(C(F)(F)F)cc1)n1nc(C(F)(F)F)c2c(=O)[nH]c(O)nc21 (single isomer, unassigned) [Example 255, (S)- or (R)-6-Hydroxy-3-(trifluoromethyl)-1-(1-(4-(trifluoromethyl)phenyl)ethyl)-1H-pyrazolo[3,4-d]pyrimidin-4(5H)-one]
9 | 0.61 nM | 0.79 nM | – | – | CN(C)c1nc2c(c(CO)nn2C(c2ccc(C(F)(F)F)c(F)c2)C2CC2)c(=O)[nH]1 (single isomer, unassigned) [Example 151, (S)- or (R)-1-(Cyclopropyl(3-fluoro-4-(trifluoromethyl)phenyl)methyl)-6-(dimethylamino)-3-(hydroxymethyl)-1H-pyrazolo[3,4-d]pyrimidin-4(5H)-one]
10 | 1.7 nM | 2 nM | – | – | CC(c1ccc(OC(F)(F)F)cc1)n1nc(CF)c2c(=O)[nH]c(N(C)C)nc21 (single isomer, unassigned) [Example 164, (R)- or (S)-6-(Dimethylammo)-3-(fluoromethyl)-1-(1-(4-(trifluoromethoxy)phenyl)ethyl)-1H-pyrazolo[3,4-d]pyrimidin-4(5H)-one]
11 | 0.045 nM | 0.05 nM | – | – | CCC(c1ccc(C(C)(F)F)cc1F)n1nc(CF)c2c(=O)[nH]c(N(C)C)nc21 (single isomer, unassigned) [Example 214, (R)- or (S)-1-(1-(4-(1,1-Difluoroethyl)-2-fluorophenyl)propyl)-6-(dimethylamino)-3-(fluoromethyl)-1H-pyrazolo[3,4-d]pyrimidin-4(5H)-one]
12 | – | – | 49 nM | 69 nM | Cc1nn(C(C)c2ccc(C(F)(F)F)cc2)c2nc(O)[nH]c(=O)c12 (centres unmarked) [Example 58, 6-Hydroxy-3-methyl-1-{1-[4-(trifluoromethyl)phenyl]ethyl}-1,5-dihydro-4H-pyrazolo[3,4-d]pyrimidin-4-one]
13 | – | – | 126 nM | 166 nM | CC(c1ccc(C(F)(F)F)cc1)n1nc(CC(F)(F)F)c2c(=O)[nH]c(O)nc21 (single isomer, unassigned) [Example 256, (R)- or (S)-6-Hydroxy-3-(2,2,2-trifluoroethyl)-1-{1-[4-(trifluoromethyl)phenyl]ethyl}-1,5-dihydro-4H-pyrazolo[3,4-d]pyrimidin-4-one]
14 | 0.044 nM | 0.054 nM | – | – | CC(C)c1ccc(C(C(C)C)n2nc(CO)c3c(=O)[nH]c(N(C)C)nc32)cc1 (single isomer, unassigned) [Example 79, (S)- or (R)-6-(Dimethylamino)-3-(hydroxymethyl)-1-(1-(4-isopropylphenyl)-2-methylpropyl)-1H-pyrazolo[3,4-d]pyrimidin-4(5H)-one]
15 | 0.19 nM | 0.41 nM | – | – | CC(C)C(c1ccc(C(C)(F)F)cc1)n1nc(CO)c2c(=O)[nH]c(N(C)C)nc21 (single isomer, unassigned) [Example 138, (R)- or (S)-1-(1-(4-(1,1-Difluoroethyl)phenyl)-2-methylpropyl)-6-(dimethylamino)-3-(hydroxymethyl)-1H-pyrazolo[3,4-d]pyrimidin-4(5H)-one]
16 | 0.6 nM | 0.61 nM | – | – | CN(C)c1nc2c(c(CO)nn2C(c2ccc(OC(F)F)c(F)c2)C2CC2)c(=O)[nH]1 (single isomer, unassigned) [Example 123, (S)- or (R)-1-(Cyclopropyl(4-(difluoromethoxy)-3-fluorophenyl)methyl)-6-(dimethylamino)-3-(hydroxymethyl)-1H-pyrazolo[3,4-d]pyrimidin-4(5H)-one]
17 | – | – | 207 nM | 278 nM | Cc1nn(C(C)c2ccc(OC(F)(F)F)cc2)c2nc(O)[nH]c(=O)c12 (centres unmarked) [Example 60, 6-Hydroxy-3-methyl-1-{1-[4-(trifluoromethoxy)phenyl]ethyl}-1,5-dihydro-4H-pyrazolo[3,4-d]pyrimidin-4-one]
18 | 25 nM | 26 nM | – | – | CC(C)C(c1ccc(C(C)(C)C)cc1)n1nc(CC(F)(F)F)c2c(=O)[nH]c(O)nc21 (single isomer, unassigned) [Example 260, (R)- or (S)-1-(1-(4-tert-Butylphenyl)-2-methylpropyl)-6-hydroxy-3-(2,2,2-trifluoroethyl)-1H-pyrazolo[3,4-d]pyrimidin-4(5H)-one]
19 | 8.3 nM | 9.2 nM | – | – | CC(C)C(c1ccc(C(F)(F)F)cc1)n1nc(CO)c2c(=O)[nH]c(O)nc21 (single isomer, unassigned) [Example 13, (S)- or (R)-6-Hydroxy-3-(hydroxymethyl)-1-(2-methyl-1-(4-(trifluoromethyl)phenyl)propyl)-1H-pyazolo[3,4-d]pyrimidin-4(5H)-one]
20 | 0.45 nM | 0.6 nM | – | – | CC(C)C(c1ccc(C(F)(F)F)cc1F)n1nc(CO)c2c(=O)[nH]c(N(C)C)nc21 (single isomer, unassigned) [Example 133, (S)- or (R)-6-(Dimethylamino)-1-(1-(2-fluoro-4-(trifluoromethyl)phenyl)-2-methylpropyl)-3-(hydroxymethyl)-1H-pyrazolo[3,4-d]pyrimidin-4(5H)-one]
21 | 0.86 nM | 1.1 nM | – | – | CC(c1ccc(C(F)F)cc1)n1nc(CO)c2c(=O)[nH]c(N(C)C)nc21 (single isomer, unassigned) [Example 83, (S)- or (R)-1-(1-(4-(Difluoromethyl)phenyl)ethyl)-6-(dimethylamino)-3-(hydroxymethyl)-1H-pyrazolo[3,4-d]pyrimidin-4(5H)-one]

Row | Compound | Ki (human PDE2A1; [1]) | Ki (Rhesus PDE2A3; [2]) | Ki (human PDE2A1; [3]) | Ki (Rhesus PDE2A3; [4])
22 | C[C@@H](c1ccc(C(F)(F)F)cc1)n1nc(CCO)c2c(=O)[nH]c(O)nc21 [Example 293, (S)-6-Hydroxy-3-(2-hydroxyethyl)-1-(1-(4-(trifluoromethyl)phenyl)ethyl)-1H-pyrazolo[3,4-d]pyrimidin-4(5H)-one] | 10 nM | 12 nM | – | –
23 | C[C@@H](c1ccc(C(F)(F)F)cc1)n1nc(CO)c2c(=O)[nH]c(N3CCCC3)nc21 [Example 156, 3-(Hydroxymethyl)-6-pyrrolidin-1-yl-1-{(1S)-1-[4-(trifluoromethyl)phenyl]ethyl}-1,5-dihydro-4H-pyrazolo[3,4-d]pyrimidin-4-one] | 0.5 nM | 0.47 nM | – | –
24 | CC(C)[C@@H](c1ccc(C(C)(C)C)cc1)n1nc(CF)c2c(=O)[nH]c(O)nc21 [Example 49, (S)-1-(1-(4-tert-Bulylphenyl)-2-melhylpropyl)-3-(fluoromethyl)-6-hydroxy-1H-pyrazolo[3,4-d]pyrimidin-4(5H)-one] | 2.3 nM | 2.5 nM | – | –
25 | CC(C)C(c1ccc(C(F)(F)F)c(F)c1)n1nc(CO)c2c(=O)[nH]c(N(C)C)nc21 (single isomer, unassigned) [Example 143, (S)- or (R)-6-(Dimethylamino)-1-(1-(3-fluoro-4-(trifluoromethyl)phenyl)-2-methylpropyl)-3-(hydroxymethyl)-1H-pyrazolo[3,4-d]pyrimidin-4(5H)-one] | 0.068 nM | 0.063 nM | – | –
